Results: patent US12522595B2, “Bicyclic ether O-glycoprotein-2-acetamido-2-deoxy-3-D-glucopyranosidase inhibitors” (BIOGEN MA INC., priority 2019, dated 2026)

Biological target: T1, Recombinant full length human OGA enzyme (Homo sapiens, UniProt O60502)
T1 construct: Recombinant full length human OGA enzyme was purchased from Origene; purchased Origene
T1 sequence (O60502 1-916): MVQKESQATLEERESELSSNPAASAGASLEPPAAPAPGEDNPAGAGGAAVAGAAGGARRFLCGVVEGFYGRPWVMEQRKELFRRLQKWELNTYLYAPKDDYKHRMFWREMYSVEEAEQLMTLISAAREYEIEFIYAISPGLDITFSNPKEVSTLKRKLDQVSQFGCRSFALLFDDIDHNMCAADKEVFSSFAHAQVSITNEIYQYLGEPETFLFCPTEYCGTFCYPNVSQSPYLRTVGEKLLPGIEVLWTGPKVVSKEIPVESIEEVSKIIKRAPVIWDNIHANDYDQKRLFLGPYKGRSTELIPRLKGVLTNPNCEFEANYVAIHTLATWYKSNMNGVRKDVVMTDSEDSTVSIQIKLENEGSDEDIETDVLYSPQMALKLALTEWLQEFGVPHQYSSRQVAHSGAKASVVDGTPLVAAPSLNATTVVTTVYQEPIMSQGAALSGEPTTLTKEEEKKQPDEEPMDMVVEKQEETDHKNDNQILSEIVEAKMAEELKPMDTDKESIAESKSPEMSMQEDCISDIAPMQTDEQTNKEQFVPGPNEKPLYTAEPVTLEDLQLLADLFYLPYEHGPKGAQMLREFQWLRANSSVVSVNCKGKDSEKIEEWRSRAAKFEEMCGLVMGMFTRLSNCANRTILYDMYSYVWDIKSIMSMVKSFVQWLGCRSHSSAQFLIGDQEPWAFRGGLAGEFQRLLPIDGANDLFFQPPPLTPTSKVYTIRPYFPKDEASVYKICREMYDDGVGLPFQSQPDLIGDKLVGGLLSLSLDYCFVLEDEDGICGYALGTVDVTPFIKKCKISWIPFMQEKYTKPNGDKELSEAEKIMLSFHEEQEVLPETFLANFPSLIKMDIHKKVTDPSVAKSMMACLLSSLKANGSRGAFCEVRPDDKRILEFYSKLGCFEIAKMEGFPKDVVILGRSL
Assay: OGA enzyme inhibition biochemical assay
Details: 1 nM OGA, 100 μM 4-MUGlcNAc (Km), pH 6.4, 90 minutes at room temperature, 10-point dose-response from 20 μM
Experimental: N-(5-(((2S,4R)-4-([1,2,4]triazolo[4,3-a]pyrazin-3-yloxy)-2-methylpyrrolidin-1-yl)methyl)-4-fluorothiazol-2-yl)acetamide: The title compound was prepared in an analogous manner as Example 172 from 3-bromo-[1,2,4]triazolo[4,3-a]pyrazine. LCMS (ESI): [M+H] 392. ^1H NMR (600 MHz, CHLOROFORM-d) δ 10.75 (br s, 1H), 9.04 (s, 1H), 9.03 (s, 1H), 7.24 (s, 1H), 4.99-5.06 (m, 1H), 4.01 (d, J=14.49 Hz, 1H), 3.64 (d, J=14.67 Hz, 1H), 3.40 (d, J=11.55 Hz, 1H), 2.75 (dd, J=5.78, 11.46 Hz, 1H), 2.61-2.72 (m, 2H), 2.32 (s, 4H), 1.84-1.92 (m, 1H), 1.30 (d, J=5.87 Hz, 4H). ^19F NMR (565 MHz, CHLOROFORM-d) 6-115.92 (br s, 1F). OGA Enzyme Inhibition Biochemical Assay
Recombinant full length human OGA enzyme was purchased from Origene. 4-MUGlCNAc substrate was purchased from Sigma. All other reagents were purchased from Sigma or Fisher. Assay buffer consists of the McIlvaine buffer system, pH 6.4 (0.2M Na2HPO4 mixed with 0.1M citric acid) and 0.01% BSA. Reactions consist of 1 nM OGA, 100 μM 4-MUGlcNAc (Km), and compound in a final volume of 10 μl. Reactions were incubated for 90 minutes at room temperature and quenched with 40 μl of 3M glycine, pH 10 and read on a Perkin Elmer Envision plate reader (Ex: 355 nm/Em: 460 nm). Compounds were tested with a 10-point dose-response starting from 20 μM with a 4-fold dilution. Data, as presented in Table 1 below, was fit using GraphPad Prism using a 4-parameter fit with variable slope.

SMILES	IC50
CC(=O)Nc1nc(F)c(CN2C[C@H](Oc3ccn4nccc4c3)C[C@@H]2C)s1 [Example 49, N-(4-fluoro-5-(((2S,4R)-2-methyl-4-(pyrazolo[1,5-a]pyridin-5-yloxy)pyrrolidin-1-yl)methyl)thiazol-2-yl)acetamide]	< 1 nM
CC(=O)Nc1nc(F)c(CN2C[C@H](Oc3ccnc4cc(F)cnc34)C[C@@H]2C)s1 [Example 129, N-(4-fluoro-5-(((2S,4R)-4-((7-fluoro-1,5-naphthyridin-4-yl)oxy)-2-methylpyrrolidin-1-yl)methyl)thiazol-2-yl)acetamide]	< 1 nM
CC(=O)Nc1nc(F)c(CN2C[C@H](Oc3cn4cccnc4n3)C[C@@H]2C)s1 [Example 92, N-(4-fluoro-5-(((2S,4R)-4-(imidazo[1,2-a]pyrimidin-2-yloxy)-2-methylpyrrolidin-1-yl)methyl)thiazol-2-yl)acetamide]	< 1 nM
CC(=O)Nc1ncc(CN2C[C@H](Oc3nc4ccccc4cc3C)C[C@@H]2C)s1 [Example 29, N-(5-(((2S,4R)-2-methyl-4-((3-methylquinolin-2-yl)oxy)pyrrolidin-1-yl)methyl)thiazol-2-yl)acetamide]	5.5 nM
CC(=O)Nc1nc(F)c(CN2C[C@H](Oc3ccc4nc(C)nn4c3)C[C@@H]2C)s1 [Example 144, N-(4-fluoro-5-(((2S,4R)-2-methyl-4-((2-methyl-[1,2,4]triazolo[1,5-a]pyridin-6-yl)oxy)pyrrolidin-1-yl)methyl)thiazol-2-yl)acetamide]	< 1 nM
CC(=O)Nc1nc(F)c(CN2C[C@H](Oc3ncnc4occc34)C[C@@H]2C)s1 [Example 74, N-(4-fluoro-5-(((2S,4R)-4-(furo[2,3-d]pyrimidin-4-yloxy)-2-methylpyrrolidin-1-yl)methyl)thiazol-2-yl)acetamide]	< 1 nM
CC(=O)Nc1nc(F)c(CN2C[C@H](Oc3cccn4ccnc34)C[C@@H]2C)s1 [Example 157, N-(4-fluoro-5-(((2S,4R)-4-(imidazo[1,2-a]pyridin-8-yloxy)-2-methylpyrrolidin-1-yl)methyl)thiazol-2-yl)acetamide]	< 1 nM
CC(=O)Nc1nc(F)c(CN2C[C@H](Oc3ccc4nn(C(F)F)cc4n3)C[C@@H]2C)s1 [Example 154, N-(5-(((2S,4R)-4-((2-(difluoromethyl)-2H-pyrazolo[4,3-b]pyridin-5-yl)oxy)-2-methylpyrrolidin-1-yl)methyl)-4-fluorothiazol-2-yl)acetamide]	< 1 nM
CC(=O)Nc1nc(F)c(CN2C[C@H](Oc3cccc4nn(C)cc34)C[C@@H]2C)s1 [Example 84, N-(4-fluoro-5-(((2S,4R)-2-methyl-4-((2-methyl-2H-indazol-4-yl)oxy)pyrrolidin-1-yl)methyl)thiazol-2-yl)acetamide]	< 1 nM
CC(=O)Nc1nc(F)c(CN2C[C@H](Oc3cc4cn(C)nc4cn3)C[C@@H]2C)s1 [Example 89, N-(4-fluoro-5-(((2S,4R)-2-methyl-4-((2-methyl-2H-pyrazolo[3,4-c]pyridin-5-yl)oxy)pyrrolidin-1-yl)methyl)thiazol-2-yl)acetamide]	< 1 nM
CC(=O)Nc1ncc(CN2C[C@H](Oc3ccc4ccccc4n3)C[C@@H]2C)s1 [Example 8, N-(5-(((2S,4R)-2-methyl-4-(quinolin-2-yloxy)pyrrolidin-1-yl)methyl)thiazol-2-yl)acetamide]	< 1 nM
CC(=O)Nc1nc(F)c(CN2C[C@H](Oc3ccn4nccc4n3)C[C@@H]2C)s1 [Example 62, N-(4-fluoro-5-(((2S,4R)-2-methyl-4-(pyrazolo[1,5-a]pyrimidin-5-yloxy)pyrrolidin-1-yl)methyl)thiazol-2-yl)acetamide]	< 1 nM
CC(=O)Nc1nc(F)c(CN2C[C@H](Oc3ncnc4c3cnn4C)C[C@@H]2C)s1 [Example 143, N-(4-fluoro-5-(((2S,4R)-2-methyl-4-((1-methyl-1H-pyrazolo[3,4-d]pyrimidin-4-yl)oxy)pyrrolidin-1-yl)methyl)thiazol-2-yl)acetamide]	< 1 nM
CC(=O)Nc1ncc(CN2C[C@H](Oc3cc4nccn4cn3)C[C@@H]2C)s1 [Example 39, N-(5-(((2S,4R)-4-(imidazo[1,2-c]pyrimidin-7-yloxy)-2-methylpyrrolidin-1-yl)methyl)thiazol-2-yl)acetamide]	< 1 nM
COc1cnc2c(O[C@@H]3C[C@H](C)N(Cc4sc(NC(C)=O)nc4F)C3)cnn2c1 [Example 121, N-(4-fluoro-5-(((2S,4R)-4-((6-methoxypyrazolo[1,5-a]pyrimidin-3-yl)oxy)-2-methylpyrrolidin-1-yl)methyl)thiazol-2-yl)acetamide]	< 1 nM
CC(=O)Nc1ncc(CN2C[C@H](Oc3ccc4c(Cl)nccc4c3)C[C@@H]2C)s1 [Example 1, N-(5-(((2S,4R)-4-((1-chloroisoquinolin-6-yl)oxy)-2-methylpyrrolidin-1-yl)methyl)thiazol-2-yl)acetamide]	< 1 nM
CC(=O)Nc1nc(F)c(CN2C[C@H](Oc3ccnc4nn(C)cc34)C[C@@H]2C)s1 [Example 140, N-(4-fluoro-5-(((2S,4R)-2-methyl-4-((2-methyl-2H-pyrazolo[3,4-b]pyridin-4-yl)oxy)pyrrolidin-1-yl)methyl)thiazol-2-yl)acetamide]	< 1 nM
COc1cc2c(O[C@@H]3C[C@H](C)N(Cc4sc(NC(C)=O)nc4F)C3)ncnc2cc1F [Example 125, N-(4-fluoro-5-(((2S,4R)-4-((7-fluoro-6-methoxyquinazolin-4-yl)oxy)-2-methylpyrrolidin-1-yl)methyl)thiazol-2-yl)acetamide]	1.8 nM
CC(=O)Nc1nc(F)c(CN2C[C@H](Oc3cncc4nccn34)C[C@@H]2C)s1 [Example 100, N-(4-fluoro-5-(((2S,4R)-4-(imidazo[1,2-a]pyrazin-5-yloxy)-2-methylpyrrolidin-1-yl)methyl)thiazol-2-yl)acetamide]	< 1 nM
CC(=O)Nc1nc(F)c(CN2C[C@H](Oc3cnc4nc(C)oc4c3)C[C@@H]2C)s1 [Example 169, N-(4-Fluoro-5-(((2S,4R)-2-methyl-4-((2-methyloxazolo[4,5-b]pyridin-6-yl)oxy)pyrrolidin-1-yl)methyl)thiazol-2-yl)acetamide]	< 1 nM
CC(=O)Nc1nc(F)c(CN2C[C@H](Oc3ccn4nncc4c3)C[C@@H]2C)s1 [Example 149, N-(5-(((2S,4R)-4-([1,2,3]triazolo[1,5-a]pyridin-5-yloxy)-2-methylpyrrolidin-1-yl)methyl)-4-fluorothiazol-2-yl)acetamide]	< 1 nM
CC(=O)Nc1ncc(CN2C[C@H](Oc3nccc4ccsc34)C[C@@H]2C)s1 [Example 11, N-(5-(((2S,4R)-2-methyl-4-(thieno[2,3-c]pyridin-7-yloxy)pyrrolidin-1-yl)methyl)thiazol-2-yl)acetamide]	< 1 nM
CC(=O)Nc1ncc(CN2C[C@H](Oc3cc4ccccc4nc3C#N)C[C@@H]2C)s1 [Example 31, N-(5-(((2S,4R)-4-((2-cyanoquinolin-3-yl)oxy)-2-methylpyrrolidin-1-yl)methyl)thiazol-2-yl)acetamide]	9.7 nM
CC(=O)Nc1nc(F)c(CN2C[C@H](Oc3cnc4nncn4c3)C[C@@H]2C)s1 [Example 165, N-(5-(((2S,4R)-4-([1,2,4]triazolo[4,3-a]pyrimidin-6-yloxy)-2-methylpyrrolidin-1-yl)methyl)-4-fluorothiazol-2-yl)acetamide]	< 1 nM
